Test results taken from ChEMBL document CHEMBL1133821, “Synthesis and antiinflammatory, analgesic activity of 3,3'-(1,2-ethanediyl)-bis[2-aryl-4-thiazolidinone] chiral compounds. Part 10” (Bioorg Med Chem Lett, 2001).

Columns and labels:
Rattus norvegicus [1] = assay: Animals with Hyperemia in Carrageenan-induced paw edema test at a dose of 100 mg/kg perorally in rats; type: functional; conditions: route oral
Rattus norvegicus [2] = assay: Animals with Ulcers in Carrageenan-induced paw edema test at a dose of 100 mg/kg perorally in rats; type: functional; conditions: route oral
Rattus norvegicus [3] = assay: Percent Edema variation in Carrageenan-induced paw edema test at a dose of 100 mg/kg perorally in rats after 120 min; type: functional; conditions: route oral
Rattus norvegicus [4] = assay: Percent Edema variation in Carrageenan-induced paw edema test at a dose of 100 mg/kg perorally in rats after 180 min; type: functional; conditions: route oral
Rattus norvegicus [5] = assay: Percent Edema variation in Carrageenan-induced paw edema test at a dose of 100 mg/kg perorally in rats after 60 min; type: functional; conditions: route oral
Rattus norvegicus [6] = assay: Reaction time in Hot plate test at a dose of 100 mg/kg perorally in rats after 180 min (p<0.05); type: functional; conditions: route oral
Rattus norvegicus [7] = assay: Analgesic activity was determined using acetic acid writing test at a dose of 100 mg/kg perorally in rats.(p<0.01); type: functional; conditions: route oral
Rattus norvegicus [8] = assay: Reaction time in Hot plate test at a dose of 100 mg/kg perorally in rats after 120 min (p<0.05); type: functional; conditions: route oral
Rattus norvegicus [9] = assay: Number of writhings in Acetic acid Writhing test at a dose of 100 mg/kg perorally in rats; type: functional; conditions: route oral
[10] = Minimum concentration which causes 50% of the Artemia salina larvae to lose mobility; type: ADME, organism-based; conditions: in vivo
[11] = Peroral dose causing 50% death of the mice population; type: ADME, organism-based; conditions: mouse, in vivo, po
Rattus norvegicus [12] = assay: Reaction time in Hot plate test at a dose of 100 mg/kg perorally in rats after 60 min (p<0.05); type: functional; conditions: route oral
Rattus norvegicus [13] = assay: Percent Edema variation in Carrageenan-induced paw edema test at a dose of 100 mg/kg perorally in rats after 180 min (p<0.01); type: functional; conditions: route oral
Rattus norvegicus [14] = assay: Percent Edema variation in Carrageenan-induced paw edema test at a dose of 100 mg/kg perorally in rats after 60 min (p<0.01); type: functional; conditions: route oral
Rattus norvegicus [15] = assay: Reaction time in Hot plate test at a dose of 100 mg/kg perorally in rats after 180 min; type: functional; conditions: route oral
Rattus norvegicus [16] = assay: Reaction time in Hot plate test at a dose of 100 mg/kg perorally in rats after 60 min; type: functional; conditions: route oral
Rattus norvegicus [17] = assay: Analgesic activity was determined using acetic acid writing test at a dose of 100 mg/kg perorally in rats.; type: functional; conditions: route oral
Rattus norvegicus [18] = assay: Reaction time in Hot plate test at a dose of 100 mg/kg perorally in rats after 120 min; type: functional; conditions: route oral
Rattus norvegicus [19] = assay: Percent Edema variation in Carrageenan-induced paw edema test at a dose of 100 mg/kg perorally in rats after 180 min (p<0.001); type: functional; conditions: route oral
Rattus norvegicus [20] = assay: Analgesic activity was determined using acetic acid writing test at a dose of 100 mg/kg perorally in rats.(p<0.05); type: functional; conditions: route oral

O=C1CS[C@H](c2ccc(Cl)c(Cl)c2)N1CCN1C(=O)CS[C@H]1c1ccc(Cl)c(Cl)c1
Animals (Rattus norvegicus [1]): 40% | Animals (Rattus norvegicus [2]): 0% | Edema variation (Rattus norvegicus [3]): -61.1% | Edema variation (Rattus norvegicus [4]): -61.2% | Edema variation (Rattus norvegicus [5]): -61.12% | Reaction time (Rattus norvegicus [6]): 22.9 s | inhibition in vivo at 100 mg/kg (Rattus norvegicus [7]): 77% | Reaction time (Rattus norvegicus [8]): 22.5 s | No. of writhings (Rattus norvegicus [9]): 4.6 | LC50 [10]: > 1000 µg/mL | LD50 [11]: > 1000 mg/kg | Reaction time (Rattus norvegicus [12]): 18.7 s

COc1ccc(OC)c([C@H]2SCC(=O)N2CCN2C(=O)CS[C@H]2c2cc(OC)ccc2OC)c1
Animals (Rattus norvegicus [1]): 40% | Animals (Rattus norvegicus [2]): 0% | Edema variation (Rattus norvegicus [3]): -13.5% | Edema variation (Rattus norvegicus [13]): -39.06% | Edema variation (Rattus norvegicus [5]): -12.48% | LC50 [10]: > 1000 µg/mL | LD50 [11]: > 1000 mg/kg

Cc1cccc(C2SCC(=O)N2CCN2C(=O)CSC2c2cccc(C)c2)c1 (centres undefined)
Animals (Rattus norvegicus [1]): 20% | Animals (Rattus norvegicus [2]): 0% | Edema variation (Rattus norvegicus [3]): -0.13% | Edema variation (Rattus norvegicus [4]): -23.6% | Edema variation (Rattus norvegicus [5]): 43.41% | LC50 [10]: > 1000 µg/mL | LD50 [11]: > 1000 mg/kg

COc1cccc(C2SCC(=O)N2CCN2C(=O)CSC2c2cccc(OC)c2)c1 (centres undefined)
Animals (Rattus norvegicus [1]): 20% | Animals (Rattus norvegicus [2]): 0% | Edema variation (Rattus norvegicus [3]): -26.3% | Edema variation (Rattus norvegicus [4]): -18.31% | Edema variation (Rattus norvegicus [14]): -34.4% | Reaction time (Rattus norvegicus [15]): 12.9 s | Reaction time (Rattus norvegicus [16]): 13.4 s | inhibition in vivo at 100 mg/kg (Rattus norvegicus [17]): 4% | Reaction time (Rattus norvegicus [18]): 13 s | No. of writhings (Rattus norvegicus [9]): 19.5 | LC50 [10]: > 1000 µg/mL | LD50 [11]: > 1000 mg/kg

COc1ccc(C2SCC(=O)N2CCN2C(=O)CSC2c2ccc(OC)c(F)c2)cc1F (centres undefined)
Animals (Rattus norvegicus [1]): 20% | Animals (Rattus norvegicus [2]): 0% | Edema variation (Rattus norvegicus [3]): -23.83% | Edema variation (Rattus norvegicus [13]): -38.94% | Edema variation (Rattus norvegicus [5]): 8.6% | Reaction time (Rattus norvegicus [15]): 13.5 s | Reaction time (Rattus norvegicus [16]): 13.4 s | inhibition in vivo at 100 mg/kg (Rattus norvegicus [17]): 20% | Reaction time (Rattus norvegicus [8]): 16.8 s | No. of writhings (Rattus norvegicus [9]): 16.4 | LC50 [10]: > 1000 µg/mL | LD50 [11]: > 1000 mg/kg

COc1ccc(OC)c(C2SCC(=O)N2CCN2C(=O)CSC2c2cc(OC)ccc2OC)c1 (centres undefined)
Animals (Rattus norvegicus [1]): 40% | Animals (Rattus norvegicus [2]): 0% | Edema variation (Rattus norvegicus [3]): -24.62% | Edema variation (Rattus norvegicus [4]): -70.22% | Edema variation (Rattus norvegicus [5]): 33.55% | LC50 [10]: > 1000 µg/mL | LD50 [11]: > 1000 mg/kg

COc1ccc(C2SCC(=O)N2CCN2C(=O)CSC2c2ccc(OC)cc2)cc1 (centres undefined)
Animals (Rattus norvegicus [1]): 20% | Animals (Rattus norvegicus [2]): 0% | Edema variation (Rattus norvegicus [3]): -26.62% | Edema variation (Rattus norvegicus [19]): -64.98% | Edema variation (Rattus norvegicus [5]): 39.52% | Reaction time (Rattus norvegicus [15]): 13.9 s | Reaction time (Rattus norvegicus [16]): 11.2 s | inhibition in vivo at 100 mg/kg (Rattus norvegicus [20]): 22% | Reaction time (Rattus norvegicus [18]): 15.1 s | No. of writhings (Rattus norvegicus [9]): 15.8 | LC50 [10]: > 1000 µg/mL | LD50 [11]: > 1000 mg/kg
